Patent US8697390B2, “Method and kit for examination of cells using N-(9-acridinyl) maleimide (NAM) or using 7-diethylamino-3-((4′-iodacetyl)amino)phenyl)-4-methylkcoumarin (CPI)” (ChemoMetec A/S, priority 2008, dated 2014)

Legend:
[1] = system: HEK293 cells; experiment: NAM/PI staining to determine viability of outgrown HEK293 cells (fluorescence microscopy); format: cell-based, human
Method: HEK293 cells were grown at 37° C. in a humidified air atmosphere with 5% CO2 in DMEM (Invitrogen, #31966) supplemented with 10% heat-inactivated fetal bovine serum (Invitrogen, #10108-165). Cells were harvested with 0.5 mL of trypsin (Invitrogen, #25300) and neutralized with 5 mL medium (DMEM+10% FCS) two days after they had reached full confluency. These outgrown HEK293 cells (cell density 1.6×10^6, 78% viable determined using the NC-100 NucleoCounter system following the manufacturer's (ChemoMetec) protocol) were stained with 10 μg/mL NAM (Sigma, #01665). Another cell sample were treated with 0.25% Triton X-100 (Sigma, #T9284) and hereafter added 10 μg/mL NAM. After staining, each cell sample was loaded into a NucleoCassette, containing the DNA stain propidium iodide (PI). The cells were investigated using an Olympus IX50 fluorescent microscope, and images were captured using a Lumenera CCD camera and in-house developed software. PI and NAM fluorescence were detected using, respectively, U-MWG2 (green long pass: 510-550 nm) and U-MNUA2 (UV band pass, 330-385 nm) filter cubes (Olympus).

[2] = Excitation spectra of NAM with -SH reagents (spectrofluorophotometer); format: physicochemical
Method: The excitation spectra of NAM, glutathione GSH, GSSG and DTT and combinations thereof were obtained using a spectrofluorophotometer (RF-5301 Fluorescence Spectrophotometer, Shimadzu). 10 μL NAM dissolved in DMSO (100 μg/mL) were added to 3 mL distilled water (resulting concentration of NAM; 0.33 μg/mL) in a quartz cuvette and the excitation spectrum was recorded. Likewise were the spectra of NAM (0.33 μg/mL) together with GSH (167 μg/mL), NAM (0.33 μg/mL) together with GSSG (167 μg/mL), NAM together with DTT (167 μg/mL), GSH (167 μg/mL) alone, GSSG (167 μg/mL) alone and DTT (167 μg/mL) alone recorded.

[3] = system: Drosophila S2 cells; experiment: NAM/PI staining to determine viability of Drosophila S2 cells (fluorescence microscopy); format: cell-based, Drosophila melanogaster; conditions: 99% viable, diluted 10 times in PBS, 10 μg/mL NAM
Method: (Drosophila melanogaster Schneider line-2 (S2) cells were originally derived from late embryonic stage Drosophila embryos.) Drosophila S2 cells were grown at 28° C. without shaking in Schneider's Drosophila medium (Invitrogen, #21720) supplemented with 10% heat-inactivated fetal bovine serum (Invitrogen, #10108-165). S2 cells (cell density 1.7×10^7, 99% viable determined using the YC-100 NucleoCounter system with diploid settings following the manufacturer's (ChemoMetec) protocol) were diluted 10 times in PBS and stained with 10 μg/mL NAM (Sigma, #01665). Cells were loaded into a NucleoCassette, containing the DNA stain propidium iodide (PI). The cells were investigated using an Olympus IX50 fluorescent microscope, and images were captured using a Lumenera CCD camera and in-house developed software. PI and NAM fluorescence were detected using, respectively, U-MWG2 (green long pass: 510-550 nm) and U-MNUA2 (UV band pass, 330-385 nm) filter cubes (Olympus).

[4] = system: Jurkat (JM) cells; experiment: NAM/PI staining to determine viability of proliferating Jurkat cells (fluorescence microscopy); format: cell-based; conditions: 99% viable, 10 μL NAM (100 μg/mL DMSO) in 90 μL cells, UV band pass filter
Method: Jurkat (JM) cells were grown at 37° C. in a humidified air atmosphere with 5% CO2 in RPMI (Invitrogen, #61870) supplemented with 10% heat-inactivated fetal bovine serum (Invitrogen, #10108-165). 90 μL proliferating Jurkat cells (cell density 1.2×10^6, 99% viable determined using the NC-100 NucleoCounter system following the manufacturer's (ChemoMetec A/S) protocol) were added 10 μL NAM (N-(9-acridinyl)maleimide, Sigma, #01665, CAS no. 49759-20-8) dissolved in DMSO (100 μg NAM pr. mL DMSO) and mixed by pipetting. Cells were loaded into a NucleoCassette, containing the DNA stain propidium iodide (PI). The cells were investigated using an Olympus IX50 fluorescent microscope, and images were captured using a Lumenera CCD camera and in-house developed software. PI and NAM fluorescence were detected using, respectively, U-MWG2 (green long pass: 510-550 nm) and U-MNUA2 (UV band pass, 330-385 nm) filter cubes (Olympus).

**Q.** With `O=C1C=CC(=O)N1c1c2ccccc2nc2ccccc12` [NAM, N-(9-acridinyl)maleimide] as the compound, how does the “staining of Triton X-100 treated cells” value ([1]; HEK293 cells treated with 0.25% Triton X-100, then 10 μg/mL NAM, PI from NucleoCassette) read?
**A.** NAM negative

**Q.** What about the “staining of cells by NAM versus PI” value ([1]; outgrown HEK293 cells, 78% viable, 10 μg/mL NAM) of the same compound?
**A.** NAM and PI were found to complementary stain the outgrown HEK293 cells

**Q.** And the “fluorescence of NAM alone” value ([2]; NAM 0.33 μg/mL in distilled water, no thiol)?
**A.** only exhibited very weak fluorescence

**Q.** And the “fluorescence on mixing NAM with GSH” value ([2]; NAM 0.33 μg/mL, GSH 167 μg/mL)?
**A.** strong synergistic effect with respect to fluorescence

**Q.** And the “fluorescence on mixing NAM with DTT” value ([2]; NAM with DTT 167 μg/mL)?
**A.** strong synergistic effect with respect to fluorescence

**Q.** And the “staining of cells by NAM versus PI” value [3]?
**A.** NAM and PI were found to complementary stain S2 cells

**Q.** What about the “staining of cells by NAM versus PI” value [4] of the same compound?
**A.** nearly all cells in the proliferating Jurkat cell culture were stained by NAM; only exception were PI positive cells
